#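 48-hour exposure; five concentrations; linearly interpolated endpoints. TGI: concentration producing complete growth inhibition.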
# Legend:
# Assay in all cases: NCI tumour cell line growth inhibition, 48 h
# [1] = system: OVCAR-3 ovarian
# [2] = system: NCI/ADR-RES ovarian
# [3] = system: NCI-H460 lung
# [4] = system: UO-31 renal
# [5] = system: A549 NSCLC
# [6] = system: K-562 leukemia
# [7] = system: SK-MEL-5 melanoma
# [8] = system: U251 CNS
# [9] = system: UACC-62 melanoma
# [10] = system: SF-268 CNS
# [11] = system: BT-549 breast
# [12] = system: MCF7 breast
# [13] = system: SK-MEL-28 melanoma
# [14] = system: SR leukemia
# [15] = system: TK-10 renal
# [16] = system: UACC-257 melanoma
# [17] = system: OVCAR-5 ovarian
# [18] = system: HCT-116 colon
# [19] = system: DU-145 prostate
# [20] = system: SNB-19 CNS
# [21] = system: HOP-62 NSCLC
# [22] = system: MDA-MB-435
# [23] = system: KM12 colon
# [24] = system: MDA-MB-231 breast
# [25] = system: COLO 205 colon
# [26] = system: ACHN renal
# [27] = system: SN12C renal
# [28] = system: OVCAR-8 ovarian
# [29] = system: HS 578T breast
# [30] = system: LOX IMVI melanoma
# [31] = system: M14 melanoma
# [32] = system: A498 renal
# [33] = system: RPMI-8226 leukemia
# [34] = system: IGROV1 ovarian
# [35] = system: EKVX NSCLC
# [36] = system: CCRF-CEM leukemia
# [37] = system: HL-60(TB) leukemia
# [38] = system: T-47D breast
# [39] = system: OVCAR-4 ovarian
# [40] = system: MDA-N
# [41] = system: HT29 colon
# [42] = system: NCI-H23 lung
# [43] = system: HOP-92 NSCLC
# [44] = system: NCI-H522 lung
# [45] = system: SF-539 CNS
# [46] = system: HCC-2998 colon
# [47] = system: SW-620 colon
# [48] = system: HCT-15 colon
# [49] = system: MALME-3M melanoma
# [50] = system: SK-MEL-2 melanoma
# [51] = system: CAKI-1 renal
# [52] = system: MOLT-4 leukemia
# [53] = system: SF-295 CNS
# [54] = system: PC-3 prostate
# [55] = system: SNB-75 CNS
# [56] = system: 786-0 renal
# [57] = system: NCI-H226 lung
# [58] = system: SK-OV-3 ovarian
# [59] = system: RXF 393 renal
smiles,measurement,setting,value
CN(C)CCCN1c2ccccc2CCc2cccc([N+](=O)[O-])c21,TGI,[1],29.8 µM
same,TGI,[2],32.9 µM
same,TGI,[3],32.1 µM
same,TGI,[4],41.7 µM
same,TGI,[5],> 100 µM
same,TGI,[6],29.1 µM
same,TGI,[7],30 µM
same,TGI,[8],32.9 µM
same,TGI,[9],36.2 µM
same,TGI,[10],64.5 µM
same,TGI,[11],61 µM
same,TGI,[12],30.7 µM
same,TGI,[13],26.1 µM
same,TGI,[14],28.5 µM
same,TGI,[15],37.2 µM
same,TGI,[16],34.7 µM
same,TGI,[17],> 100 µM
same,TGI,[18],28.9 µM
same,TGI,[19],32.3 µM
same,TGI,[20],> 100 µM
same,TGI,[21],30 µM
same,TGI,[22],30.3 µM
same,TGI,[23],30.9 µM
same,TGI,[24],47.6 µM
same,TGI,[25],33.9 µM
same,TGI,[26],53.6 µM
same,TGI,[27],52.9 µM
same,TGI,[28],29.3 µM
same,TGI,[29],70.5 µM
same,TGI,[30],30.2 µM
same,TGI,[31],29.2 µM
same,TGI,[32],37.2 µM
same,TGI,[33],23.8 µM
same,TGI,[34],32.3 µM
same,TGI,[35],> 100 µM
same,TGI,[36],14.7 µM
same,TGI,[37],30.1 µM
same,TGI,[38],27.8 µM
same,TGI,[39],45.2 µM
same,TGI,[40],29.7 µM
same,TGI,[41],29.7 µM
same,TGI,[42],> 100 µM
same,TGI,[43],45.5 µM
same,TGI,[44],30.6 µM
same,TGI,[45],31.6 µM
same,TGI,[46],31.5 µM
same,TGI,[47],36 µM
same,TGI,[48],29.6 µM
same,TGI,[49],32.5 µM
same,TGI,[50],65.6 µM
same,TGI,[51],48.4 µM
same,TGI,[52],29.8 µM
same,TGI,[53],30.1 µM
same,TGI,[54],34.5 µM
same,TGI,[55],24.4 µM
same,TGI,[56],28.6 µM
same,TGI,[57],69.5 µM
same,TGI,[58],85.9 µM
COc1ccc(P2(=S)Oc3ccc(C(c4ccccc4)(c4ccccc4)c4ccccc4)cc3O2)cc1 (stereo not drawn),TGI,[1],31 µM
same,TGI,[2],39.5 µM
same,TGI,[3],34.8 µM
same,TGI,[4],30.8 µM
same,TGI,[5],30.7 µM
same,TGI,[6],33.8 µM
same,TGI,[7],36.2 µM
same,TGI,[8],31.9 µM
same,TGI,[9],26.2 µM
same,TGI,[10],32.2 µM
same,TGI,[11],41.3 µM
same,TGI,[12],34.9 µM
same,TGI,[13],34.3 µM
same,TGI,[14],47.5 µM
same,TGI,[15],33.4 µM
same,TGI,[16],34.2 µM
same,TGI,[17],33.6 µM
same,TGI,[18],32 µM
same,TGI,[19],35.1 µM
same,TGI,[20],29.8 µM
same,TGI,[21],41.5 µM
same,TGI,[22],30.1 µM
same,TGI,[23],28.5 µM
same,TGI,[24],38.9 µM
same,TGI,[25],34.5 µM
same,TGI,[26],30.5 µM
same,TGI,[27],31.7 µM
same,TGI,[28],29.8 µM
same,TGI,[29],41 µM
same,TGI,[30],28 µM
same,TGI,[31],27.3 µM
same,TGI,[32],31.8 µM
same,TGI,[33],48.1 µM
same,TGI,[34],32.1 µM
same,TGI,[35],34.6 µM
same,TGI,[36],49 µM
same,TGI,[37],32.1 µM
same,TGI,[38],28 µM
same,TGI,[39],25.9 µM
same,TGI,[40],32.7 µM
same,TGI,[41],33.4 µM
same,TGI,[42],31.7 µM
same,TGI,[43],32.4 µM
same,TGI,[44],31.9 µM
same,TGI,[45],34.4 µM
same,TGI,[46],30.6 µM
same,TGI,[47],34.6 µM
same,TGI,[48],34.8 µM
same,TGI,[49],34.8 µM
same,TGI,[50],35.3 µM
same,TGI,[51],33.9 µM
same,TGI,[52],41.7 µM
same,TGI,[53],33.5 µM
same,TGI,[54],27.1 µM
same,TGI,[55],26.8 µM
same,TGI,[56],32.2 µM
same,TGI,[57],31.6 µM
same,TGI,[58],37.5 µM
Cn1c(=O)c2c(nc3sc4nc5ccccc5nc4n32)n(C)c1=O,TGI,[1],> 100 µM
same,TGI,[2],> 100 µM
same,TGI,[3],> 100 µM
same,TGI,[4],> 100 µM
same,TGI,[5],> 100 µM
same,TGI,[6],> 100 µM
same,TGI,[7],> 100 µM
same,TGI,[8],> 100 µM
same,TGI,[9],> 100 µM
same,TGI,[10],> 100 µM
same,TGI,[11],> 100 µM
same,TGI,[12],> 100 µM
same,TGI,[14],> 100 µM
same,TGI,[15],> 100 µM
same,TGI,[16],> 100 µM
same,TGI,[17],> 100 µM
same,TGI,[59],> 100 µM
same,TGI,[18],> 100 µM
same,TGI,[19],> 100 µM
same,TGI,[20],> 100 µM
same,TGI,[22],> 100 µM
same,TGI,[23],> 100 µM
same,TGI,[24],> 100 µM
same,TGI,[25],> 100 µM
same,TGI,[26],> 100 µM
same,TGI,[27],> 100 µM
same,TGI,[28],> 100 µM
same,TGI,[29],> 100 µM
same,TGI,[30],> 100 µM
same,TGI,[31],> 100 µM
same,TGI,[32],> 100 µM
same,TGI,[33],> 100 µM
same,TGI,[34],> 100 µM
same,TGI,[35],> 100 µM
same,TGI,[36],> 100 µM
same,TGI,[37],> 100 µM
same,TGI,[38],> 100 µM
same,TGI,[40],> 100 µM
same,TGI,[41],> 100 µM
same,TGI,[42],> 100 µM
same,TGI,[43],> 100 µM
same,TGI,[45],> 100 µM
same,TGI,[46],> 100 µM
same,TGI,[48],> 100 µM
same,TGI,[49],> 100 µM
same,TGI,[51],> 100 µM
same,TGI,[52],> 100 µM
same,TGI,[53],> 100 µM
same,TGI,[54],> 100 µM
same,TGI,[55],> 100 µM
same,TGI,[56],> 100 µM
same,TGI,[57],> 100 µM
same,TGI,[58],> 100 µM
Cc1ccc2c(c1)C(=O)c1[nH]c3ccc(F)cc3c1CO2,TGI,[1],> 100 µM
same,TGI,[2],> 100 µM
same,TGI,[3],> 100 µM
same,TGI,[4],> 100 µM
same,TGI,[5],> 100 µM
same,TGI,[6],> 100 µM
same,TGI,[7],> 100 µM
same,TGI,[8],50.2 µM
same,TGI,[9],98.2 µM
same,TGI,[10],> 100 µM
same,TGI,[11],> 100 µM
same,TGI,[12],> 100 µM
same,TGI,[13],> 100 µM
same,TGI,[14],> 100 µM
same,TGI,[15],92.6 µM
same,TGI,[16],> 100 µM
same,TGI,[17],> 100 µM
same,TGI,[18],> 100 µM
same,TGI,[19],> 100 µM
same,TGI,[20],46.8 µM
same,TGI,[21],36 µM
same,TGI,[22],> 100 µM
same,TGI,[23],> 100 µM
same,TGI,[24],> 100 µM
same,TGI,[25],> 100 µM
same,TGI,[26],> 100 µM
same,TGI,[27],> 100 µM
same,TGI,[28],62.2 µM
same,TGI,[29],58.1 µM
same,TGI,[30],> 100 µM
same,TGI,[31],> 100 µM
same,TGI,[32],> 100 µM
same,TGI,[33],> 100 µM
same,TGI,[34],> 100 µM
same,TGI,[35],> 100 µM
same,TGI,[36],> 100 µM
same,TGI,[37],> 100 µM
same,TGI,[38],> 100 µM
same,TGI,[39],88.8 µM
same,TGI,[40],> 100 µM
same,TGI,[41],> 100 µM
same,TGI,[42],> 100 µM
same,TGI,[43],> 100 µM
same,TGI,[44],> 100 µM
same,TGI,[45],49.8 µM
same,TGI,[46],> 100 µM
same,TGI,[47],> 100 µM
same,TGI,[48],> 100 µM
same,TGI,[49],> 100 µM
same,TGI,[50],40.6 µM
same,TGI,[51],> 100 µM
same,TGI,[52],> 100 µM
same,TGI,[53],31.6 µM
same,TGI,[54],> 100 µM
same,TGI,[55],40.4 µM
same,TGI,[56],> 100 µM
same,TGI,[57],> 100 µM
same,TGI,[58],43 µM
OC1CC2CCCN(CCc3c1[nH]c1ccccc31)C2 (stereo not drawn),TGI,[2],> 100 µM
same,TGI,[3],> 100 µM
same,TGI,[4],> 100 µM
same,TGI,[5],> 100 µM
same,TGI,[6],> 100 µM
same,TGI,[7],> 100 µM
same,TGI,[8],> 100 µM
same,TGI,[9],> 100 µM
same,TGI,[10],> 100 µM
same,TGI,[11],> 100 µM
same,TGI,[12],> 100 µM
same,TGI,[13],> 100 µM
same,TGI,[14],> 100 µM
same,TGI,[15],> 100 µM
same,TGI,[16],> 100 µM
same,TGI,[18],> 100 µM
same,TGI,[19],> 100 µM
same,TGI,[20],> 100 µM
same,TGI,[22],> 100 µM
same,TGI,[23],> 100 µM
same,TGI,[24],> 100 µM
same,TGI,[25],> 100 µM
same,TGI,[26],> 100 µM
same,TGI,[27],> 100 µM
same,TGI,[28],> 100 µM
same,TGI,[29],> 100 µM
same,TGI,[30],> 100 µM
same,TGI,[32],> 100 µM
same,TGI,[33],> 100 µM
same,TGI,[36],> 100 µM
same,TGI,[37],> 100 µM
same,TGI,[38],> 100 µM
same,TGI,[39],> 100 µM
same,TGI,[40],> 100 µM
same,TGI,[41],> 100 µM
same,TGI,[42],> 100 µM
same,TGI,[43],> 100 µM
same,TGI,[44],> 100 µM
same,TGI,[45],> 100 µM
same,TGI,[46],> 100 µM
same,TGI,[47],> 100 µM
same,TGI,[48],> 100 µM
same,TGI,[49],> 100 µM
same,TGI,[50],> 100 µM
same,TGI,[51],> 100 µM
same,TGI,[53],> 100 µM
same,TGI,[54],> 100 µM
same,TGI,[55],> 100 µM
same,TGI,[56],> 100 µM
same,TGI,[57],> 100 µM
same,TGI,[58],> 100 µM

# From PubChem BioAssay (NCI)
